In patent publication US20140336187A1, “METHODS FOR TREATING LEISHMANIASIS” (HOWARD UNIVERSITY, priority 2011, published 2014):
“And” between values parts separate entries of the source, which are not always exact repeats. Identical values can stand only once. Like-named read-outs stand apart in the source and are kept apart here.

What was measured:
Type in all cases: cell-based, Leishmania donovani
L. donovani amastigotes = assay: Antileishmanial activity on L. donovani amastigotes (resazurin assay); details: for IC50: read-out: IC50 (μM) Amastigotes; for SI Values Amastigotes: SI = IC50 (mouse fibroblast) ÷ IC50 (amastigotes)
Method: Amastigotes were grown in MAA/20 medium (Amastigote medium consisted of: M199 medium supplemented with 0.5% Tryptone broth, 0.01 mM bathocuproinedisulfonic acid, 0.108 mM L-Cysteine, 15 mM D-glucose, 0.685 mM L-glutamine, and 0.025 mM Hemin and 20% fetal calf serum (FCS) at a pH of 5.5).
Amastigotes were plated at a concentration of 2×10^5 cells/[…] 24 hrs before treatment with various compounds. Amastigotes were treated with dilutions of compounds in 96-well microtitre plates. Dilutions of compounds ranging from 0.03 μM to 44 μM were prepared and added to amastigotes. Amastigotes were exposed to compounds for 48 hrs and were incubated at 37° C. […] After the incubation period, 20 μl Alamar Blue (12.5 mg resazurin dissolved in 100 ml distilled water) (Mikes and Steverding, 2000) were added to each well and plates were incubated for another 2 hrs. […] Decrease of fluorescence (inhibition) was expressed as percentage of the fluorescence of control cultures and was plotted against the concentrations of compounds. The IC50 values were calculated from the sigmoidal inhibition curves. Amphotericin B was used as a reference drug.

[1] = tested on: L. donovani promastigotes; assay: Dose and time-dependent inhibitory effect on L. donovani promastigotes (2, 4, 6, 24 hours exposure)
Method: (§1) The Leishmanicidal properties of fifteen naphthoquinone compounds (FIG. 1) on L. donovani promastigotes proliferation were assessed by the resazurin cell viability assay. Promastigotes from axenic culture were harvested during the exponential phase of growth (at least 5-day old culture), incubated at a concentration of 2×10^5 cells/200 μl with and without dilutions of compounds in 96-well microtitre plates. Dilutions of compounds covering 0.03 μM to 44 μM were prepared. […] 20 μl Alamar Blue (12.5 mg resazurin dissolved in 100 ml distilled water (Sigma #R7017)) (Mikes and Steverding, 2000) were added to each well and plates were incubated for another 2 hrs. […] Decrease in fluorescence (inhibition), were expressed as percentage of the fluorescence of control cultures and were plotted against the concentrations of compounds. The IC50 values were calculated from the sigmoidal inhibition curves.
A time and dose-dependent inhibitory effect of all 15 imido-substituted naphthoquinone compounds was assessed on their activity on promastigotes of L. donovani. Promastigotes were plated in 96-well plates and incubated in different concentrations of each compound (0.03 to 44 μM), incubated for two hours and viabilities assayed by the resazurin assay. A two hour exposure was assessed by calculation of IC50 values of each compound. Values are means±S.E. (Standard Error).
(§2) A time and dose-dependent inhibitory effect of all 15 imido-substituted naphthoquinone compounds was assessed on their activity on promastigotes of L. donovani. Promastigotes were plated in 96-well plates and incubated in different concentrations of each compound (0.03 to 44 μM), incubated for four hours and cell viabilities assayed by the resazurin assay. A four hour exposure was assessed by calculation of IC50 values of each compound. Values are means±S.E. (Standard Error).
Promastigotes were plated in 96-well plates and incubated in different concentrations of each compound (0.03 to 44 μM), incubated for six hours and cell viabilities assayed by the resazurin assay. A six hour exposure was assessed by calculation of IC50 values of each compound. Values are means±S.E. (Standard error).
as §2, with “incubated for twenty four hours” for “incubated for four hours”, “assay. A twenty four hour” for “assay. A four hour”

[2] = tested on: L. donovani promastigotes; assay: Antileishmanial activity on L. donovani promastigotes (resazurin cell viability assay); details: for IC50: resazurin assay, 0.03 to 44 μM, means ± S.E. of three experiments; for SI Values Promastigotes: SI = IC50 (mouse fibroblast) ÷ IC50 (promastigotes)
Method: Approximately 5×10^5 promastigotes/ml of L. donovani Khartum strain were inoculated into Yeager's Liver infusion tryptose (YLIT) medium or Brain Heart Infusion (BHI) broth (Difco), supplemented with glucose (2.5 mg/ml), 50 U/ml Pen-Strep and 0.005 mM Hemin at 25-26° C. and subcultured bi-weekly, Mikus et al., Parasitol Int., 48(3):265-9 (2000) (Mikus and Steverding, 2000).
as §1

[3] = Leishmania donovani, 2 h, read-out: Antileishmanial Activity IC50 (μM) 2 hours
[4] = Leishmania donovani, 4 h, read-out: Antileishmanial Activity IC50 (μM) 4 hours
[5] = Leishmania donovani, 6 h, read-out: Antileishmanial Activity IC50 (μM) 6 hours
[6] = Leishmania donovani, 24 h, read-out: Antileishmanial Activity IC50 (μM) 24 hours
[7] = Leishmania donovani, read-out: IC50 (μM) Promastigotes, L. donovani promastigotes

| Compound | IC50 (L. donovani amastigotes; Leishmania donovani, 48 h) | SI Values Amastigotes (L. donovani amastigotes) | IC50 [1, 3] | IC50 [1, 4] | IC50 [1, 5] | IC50 [1, 6] | IC50 [2, 7] | SI Values Promastigotes [2] | IC50 (L. donovani amastigotes; L. donovani amastigotes, 48 hrs exposure, resazurin assay, means ± S.E.) | IC50 ([1]; promastigotes, 6 hours exposure, means ± S.E., read-out: Antileishmanial Activity IC50 (μM) 6 hours) | IC50 ([1]; promastigotes, 24 hours exposure, means ± S.E., read-out: Antileishmanial Activity IC50 (μM) 24 hours) | IC50 ([1]; read-out: Antileishmanial Activity IC50 (μM) 2 hours, promastigotes, 2 hours exposure, means ± S.E.) | IC50 ([1]; read-out: Antileishmanial Activity IC50 (μM) 4 hours, promastigotes, 4 hours exposure, means ± S.E.) | IC50 ([2]; read-out: IC50 (μM) Promastigotes, L. donovani promastigotes) |
| --- | --- | --- | --- | --- | --- | --- | --- | --- | --- | --- | --- | --- | --- | --- |
| O=C1C(Cl)=C(N(C(=O)c2cccc(Cl)c2)C(=O)c2cccc(Cl)c2)C(=O)c2ccccc21 [IMDNQ4, 3-Chloro-N-(3-chlorobenzoyl)-N-(3-chloro-1,4-dioxo-1,4-dihydronaphthalen-2-yl)-benzamide] | 1.19 µM | 141.26±56.8 and 141.26 | 3.52 ± 3.6 µM | 21.5 ± 9.6 µM | 4.11 ± 6.3 µM | 3.96 ± 1.3 µM | 6.81 µM | 24.65±12.51 and 24.65 |  |  |  |  |  |  |
| CCCC(=O)N(C(=O)CCC)C1=C(Cl)C(=O)c2ccccc2C1=O [IMDNQ15] | 18.9 µM | 0.16±0.09 and 0.16 | 8.6 ± 0.01 µM |  | 116.35 ± 0.07 µM | 3.96 µM |  | 61250.00±438 and 61250.00 |  |  |  |  |  |  |
| C[C@@H]1[C@H](O)[C@@H](C)/C=C/C=C/C=C/C=C/C=C/C=C/C=C/[C@H](O[C@@H]2O[C@H](C)[C@@H](O)[C@H](N)[C@@H]2O)C[C@@H]2O[C@](O)(C[C@@H](O)C[C@@H](O)[C@H](O)CC[C@@H](O)C[C@@H](O)CC(=O)O[C@H]1C)C[C@H](O)[C@H]2C(=O)O [Am. B., Amphotericin B, reference compound] |  |  |  |  |  |  |  |  | 22.3 µM | 52 ± 12.2 µM | 4.1 ± 0.4 µM | 3.09 ± 2 µM | 4.49 ± 0.3 µM |  |
| NC1=C(Br)C(=O)c2ccccc2C1=O [IMD8, 2-Amino-3-bromo-1,4-naphthoquinone] | 2.07 µM | 6858.62±3975.5 and 6858.62 | 0.021 ± 0.001 µM | 64.2 ± 11.8 µM | 23100 µM | 12 ± 0.8 µM | 4.3 µM | 3301.71±321.1 and 3301.71 |  |  |  |  |  | 4.4 ± 0.4 µM |
